The values below come from patent US10815238B2, “Antimicrobial compounds and methods of making and using the same” (BIOVERSYS AG, priority 2013, dated 2020).

Structures are written as SMILES. Where only a bound is given, the exact number is not on record here.

For the assay, the system named is Eschericia coli (E. coli) strain ATCC25922. Briefly: Standard microdilution assay, MIC against E. coli ATCC25922. The class given is cell-based. To be noted: Escherichia coli; E. coli strain ATCC25922, standard microdilution assay; cutoff 16 micrograms/mL; read-out: MIC E. Coli. As to the method:
The in vitro activity of the compounds of the present invention can be determined. Antimicrobial testing is typically performed to determine the minimum inhibitory concentration (MIC). Minimum inhibitory concentrations (MICs) are determined by the microdilution method in a final volume of 100 μl according to protocols outlined by The Clinical and Laboratory Standards Institute (CLSI). Performance standards for reference strains are assessed within the same experimental design to maintain quality control. See, for example, Clinical Laboratory Standards Institute: Methods for dilution antimicrobial susceptibility tests for bacteria that grow aerobically M7-A8. Approved Standard-Eighth Edition. Wayne, Pa.: CLSI; December 2008; and Clinical Laboratory Standards Institute: Performance Standards for Antimicrobial Susceptibility Testing M100-S20; Approved Standard-Twentieth Edition. Wayne, Pa.: CLSI; June 2010.
The compounds of the present invention were tested for antimicrobial activity. The Compounds 1-582 were run against Eschericia coli (E. coli) strain ATCC25922 and Compounds 320-582 were run against Staphylococcus aureus (S. aureus) 11540 strain using a standard microdilution assay to determine minimum inhibitory concentrations (MICs). […] It will be recognized by one skilled in the art that the compounds can be assessed against other bacterial organisms and that the presentation of data for activity against Eschericia coli and Staphylococcus aureus are illustrative and in no way is intended to limit the scope of the present invention. The compounds of the present invention can be assayed against a range of other microorganisms depending upon the performance activity desired to be gathered. Furthermore, the “+” and “−” representation and the selection of a cutoff value of 16 micrograms/mL is also illustrative and in no way is intended to limit the scope of the present invention.
A general note: Broth dilution looks for growth in wells or tubes with falling amounts of substance.
In general, MIC refers to the lowest concentration that inhibits growth of the organism. With `C[C@H](N)CCCc1cc(SC(F)(F)F)cc(-c2cc3cn(-c4ccc([C@H](Cc5c[nH]nn5)NCCCNC(=N)N)cc4)c(=O)nc3[nH]2)c1` [Compound 48], the MIC was less than 16 µg/mL.
On to `N=C(N)NCCCNCc1ccc(-n2cc3cc(-c4ccc(C(=O)NCc5csc(N6CCOCC6)n5)cc4)[nH]c3nc2=O)cc1` [Compound 49], for which the MIC was less than 16 µg/mL.
The same measure for `N=C(N)NCCCNCc1ccc(-n2cc3cc(-c4ccc(/C=C/C5CN(C(=N)N)C5)cc4)[nH]c3nc2=O)cc1` [Compound 50]: less than 16 µg/mL.
The same measure for `C[C@H](N)CCCc1cc(-c2cc3cn(-c4ccc([C@@H](CO)NCCCNC(=N)N)cc4)c(=O)nc3[nH]2)cc(C(F)(F)F)c1` [Compound 51]: less than 16 µg/mL; for `C[C@H](N)CCCc1cc(-c2cc3cn(-c4ccc(CN5CCCN(C(=N)N)CC5)cc4)c(=O)nc3[nH]2)cc(C(F)(F)F)c1` [Compound 52]: less than 16 µg/mL.
The same measure for `N=C(N)NCCCNCc1ccc(-n2cc3cc(-c4ccc(/C=N/OCCNC(=N)N)cc4)[nH]c3nc2=O)cc1` [Compound 53]: less than 16 µg/mL; for `N=C(N)N1CCN(Cc2ccc(-n3cc4cc(-c5ccc(C(NC6CN(C(=N)N)C6)C(F)(F)F)cc5)[nH]c4nc3=O)cc2)CC1` (centres unmarked) [Compound 54]: less than 16 µg/mL.
For the compound `C[C@H](NCCCNC(=N)N)c1ccc(-n2cc3cc(-c4cc(CO[C@H](CN)CO)cc(SC(F)(F)F)c4)[nH]c3nc2=O)cc1` [Compound 55], the MIC was less than 16 µg/mL.
In the case of `C[C@H](N)CCCc1cc(Cl)c(F)c(-c2cc3cn(-c4ccc([C@H](Cc5cccnc5)NCCCNC(=N)N)cc4)c(=O)nc3[nH]2)c1` [Compound 56], the MIC is less than 16 µg/mL.
Under `C[C@H](N)CCCc1cc(SC(F)(F)F)cc(-c2cc3cn(-c4ccc([C@H](Cc5cccnc5)NCCCNC(=N)N)cc4)c(=O)nc3[nH]2)c1` [Compound 57] stands less than 16 µg/mL; under `C[C@H](N)CCCc1cc(SC(F)(F)F)cc(-c2cc3cn(-c4ccc([C@@H](NCCCNC(=N)N)C(N)=O)cc4)c(=O)nc3[nH]2)c1` [Compound 58], less than 16 µg/mL; under `C[C@H](N)CCCc1cc(-c2cc3cn(-c4ccc([C@@H](NCCCNC(=N)N)C(N)=O)cc4)c(=O)nc3[nH]2)cc(C(F)(F)F)c1` [Compound 59], less than 16 µg/mL.
Under `C[C@H](N)CCCc1cc(-c2cc3cn(-c4ccc([C@@H](NCCCNC(=N)N)c5ccc(S(C)(=O)=O)cc5)cc4)c(=O)nc3[nH]2)cc(C(F)(F)F)c1` [Compound 60] stands more than 16 µg/mL.
The same measure for `C[C@H](N)CCCc1cc(Cl)c(F)c(-c2cc3cn(-c4ccc([C@@H](NCCCNC(=N)N)c5cccnc5)cc4)c(=O)nc3[nH]2)c1` [Compound 61]: less than 16 µg/mL.
Turning to `C[C@H](N)CCCc1cc(-c2cc3cn(-c4cccc(CCNCCCNC(=N)N)c4)c(=O)nc3[nH]2)cc(C(F)(F)F)c1` [Compound 62], the MIC was less than 16 µg/mL.
Under `C=C[C@H](N)COCc1cc(SC(F)(F)F)cc(-c2cc3cn(-c4ccc([C@H](C)NCCCNC(=N)N)cc4)c(=O)nc3[nH]2)c1` [Compound 63] stands less than 16 µg/mL.
Under `CC[C@H](N)COCc1cc(SC(F)(F)F)cc(-c2cc3cn(-c4ccc([C@H](C)NCCCNC(=N)N)cc4)c(=O)nc3[nH]2)c1` [Compound 64] stands less than 16 µg/mL; under `C[C@H](N)CC[C@@H](O)c1cc(SC(F)(F)F)cc(-c2cc3cn(-c4ccc([C@H](C)NCCCNC(=N)N)cc4)c(=O)nc3[nH]2)c1` [Compound 65], less than 16 µg/mL.
The same measure for `C[C@H](N)CCCc1cc(SC(F)(F)F)cc(-c2cc3cn(-c4ccc([C@@H](NCCCNC(=N)N)c5cccnc5)cc4)c(=O)nc3[nH]2)c1` [Compound 66]: less than 16 µg/mL.
Take `C[C@H](NCCCNC(=N)N)c1ccc(-n2cc3cc(-c4cc(CCC[C@H](C)NC(=O)OCc5ccccc5)cc(Cl)c4F)[nH]c3nc2=O)cc1` [Compound 67]: the MIC was less than 16 µg/mL.
Under `C[C@H](N)CC[C@H](O)c1cc(SC(F)(F)F)cc(-c2cc3cn(-c4ccc([C@H](C)NCCCNC(=N)N)cc4)c(=O)nc3[nH]2)c1` [Compound 68] stands less than 16 µg/mL; under `C[C@H](N)CCCc1cc(Cl)c(F)c(-c2cc3cn(-c4ccc([C@@H](CCc5ccncc5)NCCCNC(=N)N)cc4)c(=O)nc3[nH]2)c1` [Compound 69], less than 16 µg/mL.
Turning to `COC(=O)N[C@@H](C)CCCc1cc(Cl)c(F)c(-c2cc3cn(-c4ccc([C@H](C)NCCCNC(=N)N)cc4)c(=O)nc3[nH]2)c1` [Compound 70], the MIC was less than 16 µg/mL.
Turning to `CCOC(=O)N[C@@H](C)CCCc1cc(Cl)c(F)c(-c2cc3cn(-c4ccc([C@H](C)NCCCNC(=N)N)cc4)c(=O)nc3[nH]2)c1` [Compound 71], the MIC is less than 16 µg/mL.
Under `C[C@H](NCCCNC(=N)N)c1ccc(-n2cc3cc(-c4cc(CCC[C@H](C)NC(=O)CN)cc(Cl)c4F)[nH]c3nc2=O)cc1` [Compound 72] stands less than 16 µg/mL; under `C[C@H](N)CCCc1cc(-c2cc3cn(-c4ccc([C@H](CCF)NCCCNC(=N)N)cc4)c(=O)nc3[nH]2)cc(C(F)(F)F)c1` [Compound 73], less than 16 µg/mL; under `C[C@H](N)CCCc1cc(Cl)c(F)c(-c2cc3cn(-c4ccc([C@H](CCF)NCCCNC(=N)N)cc4)c(=O)nc3[nH]2)c1` [Compound 74], less than 16 µg/mL.
As to `C[C@H](N)CCCc1cc(SC(F)(F)F)cc(-c2cc3cn(-c4ccc([C@H](CCF)NCCCNC(=N)N)cc4)c(=O)nc3[nH]2)c1` [Compound 75], the MIC is less than 16 µg/mL.
`CC(=O)N[C@@H](C)CCCc1cc(Cl)c(F)c(-c2cc3cn(-c4ccc([C@H](C)NCCCNC(=N)N)cc4)c(=O)nc3[nH]2)c1` [Compound 76]: the minimum inhibitory concentration (MIC) was more than 16 µg/mL.
Under `CC[C@@H](N)COCc1cc(SC(F)(F)F)cc(-c2cc3cn(-c4ccc([C@H](C)NCCCNC(=N)N)cc4)c(=O)nc3[nH]2)c1` [Compound 77] stands less than 16 µg/mL; under `C=C[C@H](N)CC[C@@H](O)c1cc(SC(F)(F)F)cc(-c2cc3cn(-c4ccc([C@H](C)NCCCNC(=N)N)cc4)c(=O)nc3[nH]2)c1` [Compound 78], less than 16 µg/mL; under `C=C[C@@H](N)CC[C@@H](O)c1cc(SC(F)(F)F)cc(-c2cc3cn(-c4ccc([C@H](C)NCCCNC(=N)N)cc4)c(=O)nc3[nH]2)c1` [Compound 79], less than 16 µg/mL.
`C[C@H](NCCCNC(=N)N)c1ccc(-n2cc3cc(-c4cc(COC[C@@H](N)CO)cc(SC(F)(F)F)c4)[nH]c3nc2=O)cc1` [Compound 80]: the MIC is less than 16 µg/mL.
Turning to `C=CCC[C@H](NCCCNC(=N)N)c1ccc(-n2cc3cc(-c4cc(CCC[C@H](C)N)cc(Cl)c4F)[nH]c3nc2=O)cc1` [Compound 81], the MIC is less than 16 µg/mL.
For `C=CCC[C@H](NCCCNC(=N)N)c1ccc(-n2cc3cc(-c4cc(CCC[C@H](C)N)cc(SC(F)(F)F)c4)[nH]c3nc2=O)cc1` [Compound 82], the MIC was less than 16 µg/mL.
Regarding `CSC[C@H](N)COCc1cc(SC(F)(F)F)cc(-c2cc3cn(-c4ccc([C@H](C)NCCCNC(=N)N)cc4)c(=O)nc3[nH]2)c1` [Compound 83], the MIC was less than 16 µg/mL.
The same measure for `C[C@H](N)CCCc1cc(-c2cc3cn(-c4ccc([C@@H](NCCCNC(=N)N)c5cccnc5)cc4)c(=O)nc3[nH]2)cc(C(F)(F)F)c1` [Compound 84]: less than 16 µg/mL; for `C[C@H](N)CCCc1cc(Cl)c(F)c(-c2cc3cn(-c4ccc([C@H](CCNc5nccs5)NCCCNC(=N)N)cc4)c(=O)nc3[nH]2)c1` [Compound 85]: less than 16 µg/mL.
